Assay results from patent publication US20100196321A1, “COMPOUNDS” (GLAXOSMITHKLINE LLC, priority 2009, published 2010).

What was measured:
[1] = target: HCV Genotype 1a NS3-4A Protease Domain (Hepatitis C virus genotype 1a, UniProt P27958, T1100M/T1173A); assay: Hepatitis C NS3 Protease FRET Assay (RET-S1); format: biochemical
Experimental: Hepatitis C NS3 Protease FRET Assay (RET-S1) Using the HCV Genotype 1a NS3-4A Protease Domain
Compounds were tested as inhibitors of HCV NS3-4A protease domain in 10 μl reactions which contained 50 mM HEPES pH 7.5, 20% sucrose, 0.05% NP40, 5 mM DTT, 1 μM 4A peptide ([…] that served as a cofactor and activated the enzyme in the assay) (prepared by standard synthetic methods), 5 μM RET S1 substrate (Ac-DED(EDANS)EEAbu ψ[COO] ASK(DABCYL)) and 1 nM NS3 protease domain. The RET S1 substrate (Ac-Asp-Glu-Asp(EDANS)-Glu-Glu-Abu-ψ-[COO]-Ala-Ser-Lys(DABCYL)-NH2) was purchased from Anaspec, Inc. (Taliani et. al, 1996, Anal Biochem). “ψ-[COO]” refers to the location of the ester bond within the molecule
Cleavage of the substrate, which is based on the natural NS4A/NS4B junction (DEMEECASHL), was monitored by measuring the increase in fluorescence with 355 nm excitation/495 nm emission in a Molecular Devices SpectraMax Gemini plate reader. Compounds were dissolved in DMSO and tested at 10 μM in duplicate or in dose response curves with usually 10 μM top concentration and 3-fold dilutions. The maximum level of DMSO was 5%. The standard compound in the assay was the compound BILN-2061 (Lamarre at al., (2003) Nature, 426, 186-189).

[2] = tested on: sub-genomic HCV NS3-NS5B replicon of genotype 1a in Huh-7 cells; assay: Replicon Luciferase Cell Based Assay, genotype 1a; set-up: species or system HCV genotype 1a; conditions: Hepatitis C virus, Huh-7, 48 hours
Outline: (§1)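 5,000 luciferase-replicon cells per well in DMEM with 5% FCS were exposed to 1:3 compound dilutions for 48 h at 37 °C. Firefly luciferase (Steady-Glo) was read, with CellTiter-Glo on duplicate plates for cytotoxicity; background-subtracted signal as % of compound-free control gave IC50.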

[3] = tested on: sub-genomic HCV NS3-NS5B replicon of genotype 1b (ET subline) in Huh-7 cells; assay: Replicon Luciferase Cell Based Assay, genotype 1b; set-up: species or system HCV genotype 1b; conditions: Hepatitis C virus, Huh-7, 48 h, read-out: Genotype 1b (IC50 μM)
Outline: as §1

[4] = tested on: HCV replicon wt; assay: HCV PI Transient Replicon Assay, wt; format: cell-based; conditions: Hepatitis C virus; ET Cured cells, 72 hours
From the text: (§2) A model system for HCV RNA replication is a cell based assay using subgenomic or genomic HCV replicons containing HCV genes and possibly a selectable and/or screenable marker. […] The HCV PI transient replicons assay was derived from two publications ([…]; J Virol 75, 12047, 2001). In this assay, the target cells were “ET Cured cells”, a cell line generated by treating ET replicons cells (RebliKon) with Interferon a for several passages until the HCV genome was cleared. Other modifications to the published protocol included 1) cells were transfected in PBS and 2) were treated for 72 hours with compounds. Data from dose responses was analyzed using BioAssay. EC50 values were generated by plotting percent inhibition against compound concentration. The various HCV mutant replicons were generated by standard molecular biology techniques and confirmed by sequencing.

[5] = tested on: HCV mutant replicon A156S; assay: HCV PI Transient Replicon Assay, A156S; format: cell-based; conditions: Hepatitis C virus, 72 h, read-out: A156S EC50 values (nM)
From the text: as §2

[6] = tested on: HCV mutant replicon A156T; assay: HCV PI Transient Replicon Assay, A156T; format: cell-based; conditions: Hepatitis C virus, 72 h, read-out: A156T EC50 values (nM)
From the text: as §2

[7] = tested on: HCV mutant replicon A156V; assay: HCV PI Transient Replicon Assay, A156V; format: cell-based; conditions: Hepatitis C virus, 72 h, read-out: A156V EC50 values (nM)
From the text: as §2

[8] = tested on: HCV mutant replicon D168A; assay: HCV PI Transient Replicon Assay, D168A; format: cell-based; conditions: Hepatitis C virus, 72 h, read-out: D168A EC50 values (nM)
From the text: as §2

[9] = tested on: HCV mutant replicon D168V; assay: HCV PI Transient Replicon Assay, D168V; format: cell-based; conditions: Hepatitis C virus, 72 h, read-out: D168V EC50 values (nM)
From the text: as §2

[10] = tested on: HCV mutant replicon R155K; assay: HCV PI Transient Replicon Assay, R155K; format: cell-based; conditions: Hepatitis C virus, 72 h, read-out: R155K EC50 values (nM)
From the text: as §2

[11] = tested on: HCV protease-resistant mutants; assay: HCV PI Transient Replicon Assay, profile over resistant mutants; format: cell-based; conditions: e.g. A1566S, A156T, R155K, others
From the text: as §2
Compounds of the invention are thought to be active against HCV protease-resistant mutants. […] EC50 values (nM) are shown below in Table 3.

SMILES | IC50 [1] | IC50 [2] | IC50 [3] | EC50 [4] | EC50 [5] | EC50 [6] | EC50 [7] | EC50 [8] | EC50 [9] | EC50 [10] | profile against resistant mutants compared with other HCV PI inhibitors ITMN-191 and TMC-435350 [11]
COc1ccc2c(O[C@@H]3C[C@H]4C(=O)N[C@]5(C(=O)NS(=O)(=O)C6CC6)C[C@H]5/C=C\CCCCC[C@H](NC(=O)N5CCCCC5)C(=O)N4C3)cc(-c3nc(C(C)C)cs3)nc2c1C [Example 16, (2R,6S,13aS,14aR,16aS)-N-(cyclopropylsulfonyl)-2-{[8-methyl-2-[4-(1-methylethyl)-1,3-thiazol-2-yl]-7-(methyloxy)-4-quinolinyl]oxy}-5,16-dioxo-6-[(1-piperidinylcarbonyl)amino]-1,2,3,6,7,8,9,10,11,13a,14,15,16,16a-tetradecahydrocyclopropa[e]pyrrolo[1,2-a][1,4]diazacyclopentadecine-14a(5H)-carboxamide] | 5 nM | < 0.01 µM | < 0.01 µM | 0.04 nM | 0.07 nM | 1.95 nM | 7.17 nM | 24.8 nM | 80.6 nM | 6.93 nM | improved profile
COc1ccc2c(O[C@@H]3C[C@H]4C(=O)N[C@]5(C(=O)NS(=O)(=O)C6CC6)C[C@H]5/C=C\CCCCC[C@H](NC(=O)N5CCCC5)C(=O)N4C3)cc(-c3nc(C4CC4)cs3)nc2c1C [Example 30, (2R,6S,13a-5,1-aR,16aS,Z)-N-(cyclopropylsulfonyl)-2-(2-(4-cyclopropylthiazol-2-yl)-7-methoxy-8-methylquinolin-4-yloxy)-5,16-dioxo-6-(pyrrolidine-1-carboxamido)-1,2,3,5,6,7,8,9,10,11,13a,14,14a,15,16,16a-hexadecahydrocyclopropa[e]pyrrolo[1,2-a][1,4]diazacyclopentadecine-14a-carboxamide] | – | < 0.01 µM | < 0.01 µM | – | – | – | – | – | – | – | –
COc1ccc2c(O[C@@H]3C[C@H]4C(=O)N[C@]5(C(=O)NS(=O)(=O)C6CC6)C[C@H]5/C=C\CCCCC[C@H](NC(=O)N5CCCCC5)C(=O)N4C3)cc(-c3nc(C4CC4)cs3)nc2c1C [Example 31, (2R,6S,13aS,14aR,16aS,Z)-N-(cyclopropylsulfonyl)-2-(2-(4-cyclopropylthiazol-2-yl)-7-methoxy-8-methylquinolin-4-yloxy)-5,16-dioxo-6-(piperidine-1-carboxamido)-1,2,3,5,6,7,8,9,10,11,13a,14,14a,15,16,16a-hexadecahydrocyclopropa[e]pyrrolo[1,2-a][1,4]diazacyclopentadecine-14a-carboxamide] | – | < 0.01 µM | < 0.01 µM | – | – | – | – | – | – | – | –
COc1ccc2c(O[C@@H]3C[C@H]4C(=O)N[C@]5(C(=O)NS(=O)(=O)C6CC6)C[C@H]5/C=C\CCCCC[C@H](NC(=O)N5CCC5)C(=O)N4C3)cc(-c3nc(C4CC4)cs3)nc2c1C [Example 32, (2R,65,13aS,14aR,16aS,Z)-6-(azetidine-1-carboxamido)-N-(cyclopropylsulfonyl)-2-(2-(4-cyclopropylthiazol-2-yl)-7-methoxy-8-methylquinolin-4-yloxy)-5,16-dioxo-1,2,3,5,6,7,8,9,10,11,13a,14,14a,15,16,16a-hexadecahydrocyclopropa[e]pyrrolo[1,2-a][1,4]diazacyclopentadecine-14a-carboxamide] | – | < 0.01 µM | < 0.01 µM | – | – | – | – | – | – | – | –
COc1ccc2c(O[C@@H]3C[C@H]4C(=O)N[C@]5(C(=O)NS(=O)(=O)C6CC6)C[C@H]5/C=C\CCCCC[C@H](NC(=O)N5CC(F)(F)C5)C(=O)N4C3)cc(-c3nc(C4CC4)cs3)nc2c1C [Example 33, (2R,6S,13aS,14aR,16aS,Z)-N-(cyclopropylsulfonyl)-2-(2-(4-cyclopropylthiazol-2-yl)-7-methoxy-8-methylquinolin-4-yloxy)-6-(3,3-difluoroazetidine-1-carboxamido)-5,16-dioxo-1,2,3,5,6,7,8,9,10,11,13a,14,14a,15,16,16a-hexadecahydrocyclopropa[e]pyrrolo[1,2-a][1,4]diazacyclopentadecine-14a-carboxamide] | – | < 0.01 µM | < 0.01 µM | – | – | – | – | – | – | – | –
COc1ccc2c(O[C@@H]3C[C@H]4C(=O)N[C@]5(C(=O)NS(=O)(=O)C6CC6)C[C@H]5/C=C\CCCCC[C@H](NC(=O)N5CCC(C)(C)C5)C(=O)N4C3)cc(-c3nc(C4CC4)cs3)nc2c1C [Example 34, (2R,6S,13a-5,1-aR,16aS,Z)-N-(cyclopropylsulfonyl)-2-(2-(4-cyclopropylthiazol-2-yl)-7-methoxy-8-methylquinolin-4-yloxy)-6-(3,3-dimethylpyrrolidine-1-carboxamido)-5,16-dioxo-1,2,3,5,6,7,8,9,10,11,13a,14,14a,15,16,16a-hexadecahydrocyclopropa[e]pyrrolo[1,2-a][1,4]diazacyclopentadecine-14a-carboxamide] | – | < 0.01 µM | < 0.01 µM | – | – | – | – | – | – | – | –
COc1ccc2c(O[C@@H]3C[C@H]4C(=O)N[C@]5(C(=O)NS(=O)(=O)C6CC6)C[C@H]5/C=C\CCCCC[C@H](NC(=O)N5CC(F)(F)C5)C(=O)N4C3)cc(-c3nc(C(C)C)cs3)nc2c1C [Example 35, (2R,6S,13aS,14aR,16aS,Z)-N-(cyclopropylsulfonyl)-6-(3,3-difluoroazetidine-1-carboxamido)-2-(2-(4-isopropylthiazol-2-yl)-7-methoxy-8-methylquinolin-4-yloxy)-5,16-dioxo-1,2,3,5,6,7,8,9,10,11,13a,14,14a,15,16,16a-hexadecahydrocyclopropa[e]pyrrolo[1,2-a][1,4]diazacyclopentadecine-14a-carboxamide] | – | < 0.01 µM | < 0.01 µM | – | – | – | – | – | – | – | –
COc1ccc2c(O[C@@H]3C[C@H]4C(=O)N[C@]5(C(=O)NS(=O)(=O)C6CC6)C[C@H]5/C=C\CCCCC[C@H](NC(=O)N5CCC(C)(C)C5)C(=O)N4C3)cc(-c3nc(C(C)C)cs3)nc2c1C [Example 36, (2R,6S,13aS,14aR,16aS,Z)-N-(cyclopropylsulfonyl)-6-(3,3-dimethylpyrrolidine-1-carboxamido)-2-(2-(4-isopropylthiazol-2-yl)-7-methoxy-8-methylquinolin-4-yloxy)-5,16-dioxo-1,2,3,5,6,7,8,9,10,11,13a,14,14a,15,16,16a-hexadecahydrocyclopropa[e]pyrrolo[1,2-a][1,4]diazacyclopentadecine-14a-carboxamide] | – | < 0.01 µM | < 0.01 µM | – | – | – | – | – | – | – | –
CC(C)(C)OC(=O)N[C@H]1CCCCC/C=C\[C@@H]2C[C@@]2(C(=O)NS(=O)(=O)C2CC2)NC(=O)[C@@H]2C[C@@H](OC(=O)N3Cc4cccc(F)c4C3)CN2C1=O [ITMN-191] | – | – | – | 0.07 nM | 1.64 nM | 6.46 nM | 11.9 nM | 54.4 nM | 33.1 nM | 109 nM | –
COc1ccc2c(O[C@@H]3C[C@H]4C(=O)N[C@]5(C(=O)NS(=O)(=O)C6CC6)C[C@H]5/C=C\CCCCN(C)C(=O)[C@@H]4C3)cc(-c3nc(C(C)C)cs3)nc2c1C [TMC-435350] | – | – | – | 0.87 nM | 0.28 nM | 57.5 nM | 36.3 nM | 161 nM | 43.7 nM | 58.9 nM | –
